{"source": "patent US20060159762A1", "about": "“Stable pharmaceutical composition comprising an active substance in the form of solid solution” (priority 2004, published 2006)", "experiment": "Comparative storage stability: total degradation products and related substances by HPLC", "assay_type": "physicochemical", "conditions": "for increase of degradation products and related substances relative to the starting analysis, non-formulated active substance versus stable pharmaceutical composition (solid solution): 6 days storage on 60° C.", "experimental": "(§1) Comparison of the total amount of degradation products and related substances in non-formulated active substance and in the stable pharmaceutical composition according to the present invention comprising the active substance in the form of solid solution is presented by the graph 1. The pharmaceutical composition is prepared as described in example 2. The amount of degradation products and related substances is determined by HPLC method. [drawing]\nas §1, with “in” for “by the”, “2.” for “1.”, “5.” for “2.”, “[drawing] [drawing]” for “[drawing]”"}
{"smiles": "COc1ccc2[n-]c([S+]([O-])Cc3ncc(C)c(OC)c3C)nc2c1.COc1ccc2[n-]c([S+]([O-])Cc3ncc(C)c(OC)c3C)nc2c1.[Mg+2]", "note": "(stereo not drawn) [esomeprazole magnesium, Esomeprazole magnesium]", "values": [{"measurement": "increase of degradation products and related substances relative to the starting analysis, non-formulated active substance versus stable pharmaceutical composition (solid solution)", "setting": "composition prepared as described in example 2", "value": "four times higher"}, {"measurement": "increase of degradation products and related substances relative to the starting analysis, non-formulated active substance versus stable pharmaceutical composition (solid solution)", "setting": "composition prepared as described in example 5", "value": "> 10", "unit": "times"}, {"measurement": "increase of the amount of degradation products and related substances relative to the starting analysis, non-formulated active substance versus stable pharmaceutical composition (solid solution)", "setting": "14 days storage on 40° C., composition prepared as described in example 2", "value": "three times higher"}]}
